Measurements from ChEMBL document CHEMBL3046848, “Synthesis and biological evaluation of novel series of thieno[2,3-d]pyrimidine derivatives as anticancer and antimicrobial agents” (2013).
Values after ≈ are worked out from the molar mass of the structure shown.

What was measured:
Assay type in all cases: functional
OVCAR-4 [1] = assay: Anticancer activity against Homo sapiens (human) OVCAR4 cells after 48 hr by SRB assay; details: OVCAR-4, 48 h
UACC-62 = assay: Anticancer activity against Homo sapiens (human) UACC62 cells after 48 hr by SRB assay; details: UACC-62, 48 h
SK-MEL-5 = assay: Anticancer activity against Homo sapiens (human) SK-MEL-5 cells after 48 hr by SRB assay; details: SK-MEL-5, 48 h
SK-MEL-28 = assay: Anticancer activity against Homo sapiens (human) SK-MEL-28 cells after 48 hr by SRB assay; details: SK-MEL-28, 48 h
SK-MEL-2 = assay: Anticancer activity against Homo sapiens (human) SK-MEL-2 cells after 48 hr by SRB assay; details: SK-MEL-2, 48 h
SNB-19 = assay: Anticancer activity against Homo sapiens (human) SNB19 cells after 48 hr by SRB assay; details: SNB-19, 48 h
RXF 393 [2] = assay: Growth inhibition of Homo sapiens (human) RXF393 cells at 10 uM after 48 hr by SRB assay; details: RXF 393, 48 h, read-out: GI
RPMI-8226 = assay: Growth inhibition of Homo sapiens (human) RPMI8226 cells at 10 uM after 48 hr by SRB assay; details: RPMI-8226, 48 h, read-out: GI
SR [3] = assay: Growth inhibition of Homo sapiens (human) SR cells at 10 uM after 48 hr by SRB assay; details: read-out: GI
OVCAR-8 = assay: Growth inhibition of Homo sapiens (human) OVCAR8 cells at 10 uM after 48 hr by SRB assay; details: OVCAR-8, 48 h, read-out: GI
OVCAR-4 [4] = assay: Growth inhibition of Homo sapiens (human) OVCAR4 cells at 10 uM after 48 hr by SRB assay; details: OVCAR-4, 48 h, read-out: GI
Escherichia coli = assay: Antimicrobial activity against Escherichia coli ATCC8739 assessed as diameter of growth inhibition zone at 1 mg/ml after 24 hr by agar cup diffusion method; details: ATCC8739, 24 h, read-out: IZ
MDA-MB-231 = assay: Anticancer activity against Homo sapiens (human) MDA-MB-231/ATCC cells after 48 hr by SRB assay; details: MDA-MB-231, 48 h
MCF7 = assay: Anticancer activity against Homo sapiens (human) MCF7 cells after 48 hr by SRB assay; details: MCF7, 48 h
PC-3 = assay: Anticancer activity against Homo sapiens (human) PC3 cells after 48 hr by SRB assay; details: PC-3, 48 h
SN12C = assay: Anticancer activity against Homo sapiens (human) SN12C cells after 48 hr by SRB assay
RXF 393 [5] = assay: Anticancer activity against Homo sapiens (human) RXF393 cells after 48 hr by SRB assay; details: RXF 393, 48 h
A498 = assay: Anticancer activity against Homo sapiens (human) A498 cells after 48 hr by SRB assay; details: A498, 48 h
NCI-H522 = assay: Growth inhibition of Homo sapiens (human) NCI-H522 cells at 10 uM after 48 hr by SRB assay; details: NCI-H522, 48 h, read-out: GI
NCI-H460 = assay: Growth inhibition of Homo sapiens (human) NCI-H460 cells at 10 uM after 48 hr by SRB assay; details: NCI-H460, 48 h, read-out: GI
NCI-H23 = assay: Growth inhibition of Homo sapiens (human) NCI-H23 cells at 10 uM after 48 hr by SRB assay; details: NCI-H23, 48 h, read-out: GI
HOP-92 = assay: Growth inhibition of Homo sapiens (human) HOP92 cells at 10 uM after 48 hr by SRB assay; details: HOP-92, 48 h, read-out: GI
Pseudomonas aeruginosa = assay: Antimicrobial activity against Pseudomonas aeruginosa ATCC9027 assessed as growth inhibition after 48 hr by two-fold serial dilution method; details: ATCC9027, 48 h
HT-29 = assay: Anticancer activity against Homo sapiens (human) HT-29 cells after 48 hr by SRB assay; details: HT-29, 48 h
COLO 205 = assay: Anticancer activity against Homo sapiens (human) COLO205 cells after 48 hr by SRB assay; details: COLO 205, 48 h
NCI-H322M = assay: Anticancer activity against Homo sapiens (human) NCI-H322M cells after 48 hr by SRB assay
SR [6] = assay: Anticancer activity against Homo sapiens (human) SR cells after 48 hr by SRB assay
CCRF-CEM = assay: Anticancer activity against Homo sapiens (human) CCRF-CEM cells after 48 hr by SRB assay
SK-OV-3 = assay: Anticancer activity against Homo sapiens (human) SKOV3 cells after 48 hr by SRB assay; details: SK-OV-3, 48 h
OVCAR-5 = assay: Anticancer activity against Homo sapiens (human) OVCAR5 cells after 48 hr by SRB assay; details: OVCAR-5, 48 h
SF-268 = assay: Growth inhibition of Homo sapiens (human) SF268 cells at 10 uM after 48 hr by SRB assay; details: SF-268, 48 h, read-out: GI
SF-539 = assay: Growth inhibition of Homo sapiens (human) SF539 cells at 10 uM after 48 hr by SRB assay; details: SF-539, 48 h, read-out: GI
[7] = read-out: LC50 (the source's name)

Cc1c(C(N)=O)sc2nc(C)n(/N=c3\scc(-c4ccccc4)n3Cc3ccccc3)c(=O)c12
GI50 (OVCAR-4 [1]): 2500 nM | TGI (OVCAR-4 [1]): > 100 µM | CC50 (OVCAR-4 [1]; [7]): > 100 µM | GI50 (UACC-62): 4.26 µM | TGI (UACC-62): 83.2 µM | CC50 (UACC-62; [7]): > 100 µM | GI50 (SK-MEL-5): 1810 nM | TGI (SK-MEL-5): 3.75 µM | CC50 (SK-MEL-5; [7]): 7.75 µM | GI50 (SK-MEL-28): 3.56 µM | TGI (SK-MEL-28): > 100 µM | CC50 (SK-MEL-28; [7]): > 100 µM | GI50 (SK-MEL-2): 3.89 µM | TGI (SK-MEL-2): 86.6 µM | CC50 (SK-MEL-2; [7]): > 100 µM | GI50 (SNB-19): 4.8 µM | TGI (SNB-19): > 100 µM | CC50 (SNB-19; [7]): > 100 µM | inhibition of growth at 10 µM (RXF 393 [2]): 105% | inhibition of growth at 10 µM (RPMI-8226): 110% | inhibition of growth at 10 µM (SR [3]): 87.2% | inhibition of growth at 10 µM (OVCAR-8): 85.3% | inhibition of growth at 10 µM (OVCAR-4 [4]): 66.5% | zone of inhibition at 1000 µg/mL (Escherichia coli): 15 mm | GI50 (MDA-MB-231): 3.28 µM | TGI (MDA-MB-231): 8.41 µM | CC50 (MDA-MB-231; [7]): > 100 µM | GI50 (MCF7): 2920 nM | TGI (MCF7): > 100 µM | CC50 (MCF7; [7]): > 100 µM | GI50 (PC-3): 2150 nM | TGI (PC-3): 8.31 µM | CC50 (PC-3; [7]): > 100 µM | GI50 (SN12C): 3.84 µM | TGI (SN12C): > 100 µM | CC50 (SN12C; [7]): > 100 µM | GI50 (RXF 393 [5]): 3.43 µM | TGI (RXF 393 [5]): > 100 µM | CC50 (RXF 393 [5]; [7]): > 100 µM | GI50 (A498): 2530 nM | TGI (A498): 8.97 µM | CC50 (A498; [7]): > 100 µM | inhibition of growth at 10 µM (NCI-H522): 75.1% | inhibition of growth at 10 µM (NCI-H460): 92.5% | inhibition of growth at 10 µM (NCI-H23): 79.5% | inhibition of growth at 10 µM (HOP-92): 119% | MIC (Pseudomonas aeruginosa): 125 µg/mL (≈ 256 µM) | GI50 (HT-29): 3.04 µM | TGI (HT-29): > 100 µM | CC50 (HT-29; [7]): > 100 µM | GI50 (COLO 205): 2390 nM | TGI (COLO 205): 7.32 µM | CC50 (COLO 205; [7]): > 100 µM | GI50 (NCI-H322M): 3.71 µM | TGI (NCI-H322M): > 100 µM | CC50 (NCI-H322M; [7]): > 100 µM | GI50 (SR [6]): 5.74 µM | TGI (SR [6]): > 100 µM | CC50 (SR [6]; [7]): > 100 µM | GI50 (CCRF-CEM): 34.2 µM | TGI (CCRF-CEM): > 100 µM | CC50 (CCRF-CEM; [7]): > 100 µM | GI50 (SK-OV-3): 4.5 µM | TGI (SK-OV-3): > 100 µM | CC50 (SK-OV-3; [7]): > 100 µM | GI50 (OVCAR-5): 4.33 µM | TGI (OVCAR-5): > 100 µM | CC50 (OVCAR-5; [7]): > 100 µM | inhibition of growth at 10 µM (SF-268): 78.7% | inhibition of growth at 10 µM (SF-539): 77.8%
